{"source": "paper PMC5866846", "about": "(Archives of Toxicology, 2017)", "key": {"[1]": {"tested_on": "upcyte hepatocytes 653-03 2D6", "assay": "Tam metabolism in upcyte hepatocytes 653-03 2D6, metabolites in culture medium", "assay_type": "in vitro ADME, human", "conditions": "cells incubated with 1 µM Tam up to 144 h; for concentration in the culture medium: 653-03 2D6", "procedure": "(§1) The medium was replaced every 2–3 days. […].\n(§2) The culture medium was collected after 24, 48, 72, 96 and 144 h followed by metabolite measurements using HPLC-ESI-MS/MS.\n(§3) Protein was precipitated by the addition of ACN containing 1% of acetic acid and the corresponding deuterated internal standards to the same volume of the sample followed by centrifugation at 20.000 g for 15 min at RT. […] Analytes were separated on a Zorbax Eclipse Plus C18 column (1.8 µm, 100 × 2.1 mm, Agilent technologies) and detected on a 6460 triple quadrupole mass spectrometer (Agilent technologies) in positive ESI MRM mode. Glucuronides of estrogen-like metabolites were detected separately via MS/MS-measurements in negative ESI MRM mode.\n(§4) […]. […] […]."}, "CYP3A4": {"tested_on": "CYP3A4", "assay": "CYP3A4 activity in upcyte hepatocytes after treatment (probe substrate cocktail)", "conditions": "72 h", "procedure": "(§5) Cells were cultivated in hepatocyte culture medium at 37 °C and 5 °% CO2 in a humidified incubator. Before starting experiments, cells were cultivated in hepatocyte culture medium containing 0.5% (v/v) DMSO (Preculture medium) for 5 days (density of 0.8 × 10^4 cells/cm^2) and were subcultivated in high-performance medium containing 0.1% (v/v) DMSO (Metabolism conditioning medium) for 3–5 days (density of 1.6 × 10^5 cells/cm^2, confluence). The medium was replaced every 2–3 days.\n(§6) In HLM and supersome™ incubations the formation rate is given as nmol µg^−1 min^−1 and fmol pmol^−1 min^−1, respectively, and was calculated as the mean ± SD. […] The intrinsic Clearance (Clint) was given as Vmax/Km ratio. […] Activity of CYP enzymes in induction assays is given as the fold-change (mean ± SD) compared to the corresponding DMSO-treated control. […] Gene expression patterns of treated cells are given as fold-change compared to the corresponding DMSO-treated control samples, as described above. […] In induction and inhibition experiments corresponding EC50 and IC50 values were calculated by nonlinear regression. In all experiments a level of probability (p) ≤ 0.05 for statistical testing was considered significant.\n(§7) As control 0.05 % DMSO was used. The basal CYP activity and induction of CYP activity compared to the DMSO control were measured via HPLC-ESI-MS/MS."}, "[2]": {"tested_on": "upcyte hepatocytes 653-03 and 653-03 2D6", "assay": "Tam metabolism in upcyte hepatocytes, cell strain not distinguished", "assay_type": "in vitro ADME, human", "conditions": "cells incubated with 1 µM Tam; highest concentration, decreased over time", "procedure": "as §1, §2, §3, §4"}, "estrogen receptor": {"tested_on": "estrogen receptor", "set-up": "method as in Johnson et al. [1989]; Murphy et al. [1990]", "conditions": "in vitro, estrogen-dependent breast cancer cell lines; ref Johnson et al. [1989]; Murphy et al. [1990]; cited from earlier work"}, "CYP1A1 gene expression": {"tested_on": "CYP1A1 gene expression", "assay": "CYP1A1 gene expression in upcyte hepatocytes (Fluidigm RT-PCR)", "assay_type": "cell-based, human", "conditions": "5 µM, 72 h, both cell strains", "text": "Differences between induced and control samples were compared using Welch’s t-test (GraphPad Prism, version 5.04), when the fold-change was considered biologically relevant (1.5-fold increase or decrease in fold-changes) and corrected for multiple testing according to Bonferroni. […] An unpaired t-test assuming unequal variances was used for testing of differences in the expression patterns, when the fold-change was considered biologically relevant (1.5-fold increase or decrease in fold-changes) and corrected using Bonferroni adjustments."}, "CYP2B6": {"tested_on": "CYP2B6", "assay": "CYP2B6 activity in upcyte hepatocytes after treatment (probe substrate cocktail)", "conditions": "read-out: EC50 of induction of CYP2B6 activity; upcyte hepatocytes, 72 h, 50 pM to 5 µM", "procedure": "as §5, §6, §7"}, "CYP1A2": {"tested_on": "CYP1A2", "assay": "CYP1A2 activity in upcyte hepatocytes after treatment (probe substrate cocktail)", "conditions": "read-out: EC50 of induction of CYP1A2 activity, 72 h, 50 pM to 5 µM", "procedure": "as §5, §6, §7"}, "CYP2C9 [3]": {"target": "T1, CYP2C9 (Homo sapiens, UniProt P11712)", "T1 sequence (P11712 whole entry)": "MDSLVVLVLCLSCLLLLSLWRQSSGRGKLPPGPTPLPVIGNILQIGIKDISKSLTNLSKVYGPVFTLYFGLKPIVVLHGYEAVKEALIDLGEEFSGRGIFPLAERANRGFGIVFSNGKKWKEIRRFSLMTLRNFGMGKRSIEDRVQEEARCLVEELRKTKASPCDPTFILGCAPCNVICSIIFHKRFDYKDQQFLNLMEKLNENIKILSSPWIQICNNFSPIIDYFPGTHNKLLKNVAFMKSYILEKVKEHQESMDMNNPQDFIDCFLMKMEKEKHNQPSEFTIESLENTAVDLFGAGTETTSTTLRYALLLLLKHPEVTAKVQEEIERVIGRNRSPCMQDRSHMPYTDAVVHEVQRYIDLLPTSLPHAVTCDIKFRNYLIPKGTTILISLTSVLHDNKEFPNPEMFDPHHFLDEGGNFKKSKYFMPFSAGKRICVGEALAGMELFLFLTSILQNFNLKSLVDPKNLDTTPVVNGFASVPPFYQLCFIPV", "assay": "CYP2C9 activity in upcyte hepatocytes after treatment (probe substrate cocktail)", "assay_type": "cell-based", "set-up": "host or cells: upcyte hepatocytes 653-03 and 653-03 #138 (653-03 2D6)", "conditions": "human", "procedure": "as §5, §6, §7"}, "[4]": {"assay": "Formation kinetics of Tam-Bis, (Z)- and (E)-Met E in HLM with increasing substrate concentrations", "assay_type": "in vitro ADME, human", "conditions": "substrate 1 to 50 µM, Michaelis-Menten", "procedure": "The reaction was started by adding a NADPH regenerating system (5 mM MgCl2, 5 mM glucose-6-phosphate, 0.5 mM NADP^+ and 10 U glucose-6-phosphate-dehydrogenase in 100 mM sodium phosphate buffer pH 7.4) to the samples and immediately put in a 37 °C water bath for 30 min. The reaction was stopped with the same volume of acetonitrile (ACN) containing 1% of acetic acid together with the corresponding deuterated internal standards. Regarding incubations with Supersomes™ containing UGTs, 5 µg of protein was incubated with 250 mM MgCl2 and 2.5 ng of alamethicin for 30 min on ice, followed by 10 min at 37 °C in a water bath. Subsequently, the Supersomes™ were incubated with 10 µM of substrates (Tam-Bis, (E)- and (Z)-Met E) and the glucuronidation was started by addition of 10 mM of uridine 5′-diphospho-glucuronic acid to the samples in a water bath at 37 °C for 30 min. The reaction was stopped as described above. Metabolites were analyzed by HPLC-ESI-MS/MS.\nFor the assessment of formation kinetics of Tam-Bis, (E)- and (Z)-Metabolite E, HLM were incubated with increasing substrate concentrations ranging from 1 to 50 µM as described above. As control for each concentration a sample without NADPH-regenerating system was prepared. […]"}, "CYP2C19 [5]": {"target": "T2, CYP2C19 (Homo sapiens, UniProt P33261)", "T2 sequence (P33261 whole entry)": "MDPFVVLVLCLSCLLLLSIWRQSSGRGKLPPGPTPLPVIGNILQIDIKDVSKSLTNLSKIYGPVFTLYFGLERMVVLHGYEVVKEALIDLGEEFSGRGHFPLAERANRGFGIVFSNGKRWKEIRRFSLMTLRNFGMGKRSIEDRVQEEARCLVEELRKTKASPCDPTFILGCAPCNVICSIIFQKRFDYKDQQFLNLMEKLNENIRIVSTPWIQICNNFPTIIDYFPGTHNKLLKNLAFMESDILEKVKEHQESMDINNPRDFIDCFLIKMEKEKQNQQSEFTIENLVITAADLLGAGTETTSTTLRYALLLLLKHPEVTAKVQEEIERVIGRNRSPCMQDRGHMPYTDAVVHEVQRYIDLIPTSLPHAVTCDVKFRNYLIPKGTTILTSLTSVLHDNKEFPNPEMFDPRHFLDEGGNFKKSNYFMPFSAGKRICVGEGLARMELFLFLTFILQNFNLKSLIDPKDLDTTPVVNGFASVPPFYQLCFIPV", "assay": "CYP2C19 activity in upcyte hepatocytes after treatment (probe substrate cocktail)", "assay_type": "cell-based", "set-up": "host or cells: upcyte hepatocytes 653-03 and 653-03 #138 (653-03 2D6)", "conditions": "upcyte hepatocytes, 72 h, 50 pM to 5 µM; read-out: EC50 of induction of CYP2C19 activity", "procedure": "as §5, §6, §7"}, "CYP2C8 [6]": {"target": "T3, CYP2C8 (Homo sapiens, UniProt P10632)", "T3 sequence (P10632 1-490)": "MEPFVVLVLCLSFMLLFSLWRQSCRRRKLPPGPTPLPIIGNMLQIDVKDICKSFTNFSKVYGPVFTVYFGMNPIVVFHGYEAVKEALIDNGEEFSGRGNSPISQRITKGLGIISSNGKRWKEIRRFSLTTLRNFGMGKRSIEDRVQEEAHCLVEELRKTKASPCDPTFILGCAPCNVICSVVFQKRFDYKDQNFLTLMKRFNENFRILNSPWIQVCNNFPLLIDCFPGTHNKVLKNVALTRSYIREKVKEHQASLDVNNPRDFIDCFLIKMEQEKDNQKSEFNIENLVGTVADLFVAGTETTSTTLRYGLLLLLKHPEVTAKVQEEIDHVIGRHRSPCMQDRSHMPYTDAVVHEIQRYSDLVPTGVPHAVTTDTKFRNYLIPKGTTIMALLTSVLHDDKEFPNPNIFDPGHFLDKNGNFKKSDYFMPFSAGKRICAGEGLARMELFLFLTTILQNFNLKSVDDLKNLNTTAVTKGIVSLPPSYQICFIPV", "assay": "CYP2C8 activity in upcyte hepatocytes after treatment (probe substrate cocktail)", "assay_type": "cell-based", "set-up": "host or cells: upcyte hepatocytes 653-03 and 653-03 #138 (653-03 2D6)", "procedure": "as §5, §6, §7"}, "[7]": {"tested_on": "upcyte hepatocytes 653-03", "assay": "Tam metabolism in upcyte hepatocytes 653-03 (parental), metabolites in culture medium", "assay_type": "in vitro ADME, human", "conditions": "cells incubated with 1 µM Tam up to 144 h, parental 653-03", "procedure": "as §1, §2, §3, §4"}, "CYP2C8 [8]": {"target": "T3, CYP2C8", "assay": "Inhibition of CYP2C8 activity in HLM", "assay_type": "in vitro ADME", "conditions": "200 nM to 10 µM, 10 min pre-incubation"}, "CYP2C9 [9]": {"target": "T1, CYP2C9", "assay": "Inhibition of CYP2C9 activity in HLM", "assay_type": "in vitro ADME", "conditions": "200 nM to 10 µM, 10 min pre-incubation"}, "CYP2C19 [10]": {"target": "T2, CYP2C19", "assay": "Inhibition of CYP2C19 activity in HLM", "assay_type": "in vitro ADME", "conditions": "human, human liver microsomes, 200 nM to 10 µM, 10 min pre-incubation"}, "[11]": {"conditions": "read-out: Km, (E)-Met E formation"}, "[12]": {"conditions": "read-out: Km, (Z)-Met E formation"}}, "note": "Read-outs that look alike come from different tables or passages of the source."}
{"smiles": "CC/C(=C(/c1ccc(OCCN(C)C)cc1)c1ccc(O[C@@H]2O[C@H](C(=O)O)[C@@H](O)[C@H](O)[C@H]2O)cc1)c1ccccc1", "note": "[4OH-Tam-glucuronide, tamoxifen-4-O-glucuronide]", "values": [{"measurement": "concentration in the supernatant of 653-03 2D6 cells relative to parental cells", "setting": "[1]", "result": "up to 25 times"}]}
{"smiles": "CCC(=C(c1ccccc1)c1ccc(O)cc1)c1ccccc1", "note": "[(Z)-Met E, 4-[1,2-diphenylbut-1-en-1-yl]phenol]", "values": [{"measurement": "induction of CYP3A4 activity compared to DMSO control", "setting": "CYP3A4; 5 µM, parental and derived cell line", "result": "weakly induced"}, {"measurement": "EC50", "setting": "CYP3A4; read-out: EC50 of induction of CYP3A4 activity, upcyte hepatocytes, 50 pM to 5 µM", "result": 0.308, "unit": "µM"}, {"measurement": "concentration in the supernatant of the cells", "setting": "[2]", "result": "up to 440 pM"}, {"measurement": "agonism regarding estrogen-regulated mRNA expression", "setting": "estrogen receptor", "result": "full agonists"}, {"measurement": "CYP1A1 gene expression, induction vs DMSO control", "setting": "CYP1A1 gene expression", "result": 3.3, "unit": "fold"}, {"measurement": "EC50", "setting": "CYP2B6", "result": "> 5", "unit": "µM"}, {"measurement": "EC50", "setting": "CYP1A2", "result": "> 5", "unit": "µM"}, {"measurement": "EC50 at 72 h", "setting": "CYP2C9 [3]; probe tolbutamide (100 µM), upcyte hepatocytes, 50 pM to 5 µM, read-out: EC50 of induction of CYP2C9 activity", "result": "> 5", "unit": "µM"}, {"measurement": "V max, Bisphenol formation", "setting": "[4]", "result": 17.2, "unit": "pmol/mg/min"}, {"measurement": "Km", "setting": "[4]; read-out: Km, Bisphenol formation", "result": 8.2, "unit": "µM"}, {"measurement": "EC50", "setting": "CYP2C19 [5]", "result": "> 5", "unit": "µM"}, {"measurement": "EC50", "setting": "CYP2C8 [6]; upcyte hepatocytes, 72 h, 50 pM to 5 µM, read-out: EC50 of induction of CYP2C8 activity", "result": "> 5", "unit": "µM"}]}
{"smiles": "CC/C(=C(\\c1ccccc1)c1ccc(OCCN)cc1)c1ccccc1", "note": "[DDM-Tam, N-didesmethyl-tamoxifen]", "values": [{"measurement": "V max, (E)-Met E formation", "setting": "[4]", "result": 0.70, "unit": "pmol/mg/min"}, {"measurement": "V max, (Z)-Met E formation", "setting": "[4]", "result": 5.2, "unit": "pmol/mg/min"}, {"measurement": "Km", "setting": "[4]; [11]", "result": 20.7, "unit": "µM"}, {"measurement": "Km", "setting": "[4]; [12]", "result": 55.1, "unit": "µM"}]}
{"smiles": "CC/C(=C(\\c1ccccc1)c1ccc(OCCNC)cc1)c1ccccc1", "note": "[DM-Tam, N-desmethyltamoxifen]", "values": [{"measurement": "V max, (E)-Met E formation", "setting": "[4]", "result": 0.32, "unit": "pmol/mg/min"}, {"measurement": "V max, (Z)-Met E formation", "setting": "[4]", "result": 6.1, "unit": "pmol/mg/min"}, {"measurement": "Km", "setting": "[4]; [11]", "result": 11.5, "unit": "µM"}, {"measurement": "Km", "setting": "[4]; [12]", "result": 102, "unit": "µM"}, {"measurement": "concentration in the culture medium", "setting": "[7]", "result": "up to 8 nM"}, {"measurement": "concentration in the culture medium", "setting": "[1]", "result": "≤ 14", "unit": "nM"}]}
{"smiles": "CC/C(=C(\\c1ccc(O)cc1)c1ccc(OCCNC)cc1)c1ccccc1", "note": "[Endox, (Z)-endoxifen]", "values": [{"measurement": "CYP1A1 gene expression, induction vs DMSO control", "setting": "CYP1A1 gene expression", "result": "up to 2.3 fold"}, {"measurement": "inhibition at 72 h, 5 µM", "setting": "CYP2C9 [3]; probe tolbutamide 100 µM, 5 µM", "result": 63, "unit": "%"}, {"measurement": "IC50", "setting": "CYP2C8 [8]", "result": 8.1, "unit": "µM"}, {"measurement": "inhibition at 72 h, 5 µM", "setting": "CYP2C8 [6]; human, upcyte hepatocytes 653-03 and 653-03 2D6, probe amodiaquine 5 µM, 5 µM, both cell lines", "result": "≤ 90", "unit": "%"}, {"measurement": "IC50", "setting": "CYP2C9 [9]", "result": "> 10", "unit": "µM"}, {"measurement": "IC50 of CYP2C9 activity", "setting": "CYP2C9 [9]", "result": "weakly inhibited"}, {"measurement": "IC50 at 15 min", "setting": "CYP2C19 [10]", "result": "> 10", "unit": "µM"}, {"measurement": "concentration in the culture medium", "setting": "[1]", "result": "up to 11 nM"}]}
